Broadly, the Ki is the equilibrium dissociation constant of an inhibitor or competing ligand from its target. As a reminder, the Emax is the maximal effect, on the per cent scale that the assay sets. For orientation: EC50 means the concentration giving half of the maximal effect.

Like-named read-outs stand apart in the source and are kept apart here. Where only a bound is given, the exact number is not on record here.

The target of data set [1] is T1, CB1 (Rattus norvegicus, UniProt P20272).
T1 construct: membrane preparations from rat brain (source of CB1); tissue Bioivt RAT00BRAINMZN; host or cells: rat brain
T1 sequence (P20272 whole entry): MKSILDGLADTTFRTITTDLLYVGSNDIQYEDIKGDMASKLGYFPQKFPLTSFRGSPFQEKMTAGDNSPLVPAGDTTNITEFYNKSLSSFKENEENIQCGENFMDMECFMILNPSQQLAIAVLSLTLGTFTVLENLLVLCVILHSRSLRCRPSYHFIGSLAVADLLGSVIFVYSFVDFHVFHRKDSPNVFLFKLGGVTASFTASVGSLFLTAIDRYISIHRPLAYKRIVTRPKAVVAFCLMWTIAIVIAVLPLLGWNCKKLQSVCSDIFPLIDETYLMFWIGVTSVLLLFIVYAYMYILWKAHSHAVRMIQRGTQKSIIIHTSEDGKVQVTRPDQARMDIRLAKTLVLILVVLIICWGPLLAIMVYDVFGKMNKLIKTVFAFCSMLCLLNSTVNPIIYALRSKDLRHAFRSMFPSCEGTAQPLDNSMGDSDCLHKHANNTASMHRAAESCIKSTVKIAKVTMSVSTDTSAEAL
Kind of data set: Radioligand competition binding with [3H]-CP-55,940, rat brain membranes. The conditions noted are these: for Ki: rCB1 binding Ki [95% CI], [3H]-CP-55,940 competition, rat brain membranes; for Emax: maximal radioligand displacement, read-out: rCB1 binding Emax [SEM]. The protocol:
The results were analyzed using nonlinear regression to determine the IC50 and Ki values for each ligand (Prism by GraphPad Software, Inc., San Diego, CA). The Ki values are expressed as the mean of two to three experiments each performed in triplicate.
Background: Loss of bound radioactivity is the signal in a displacement assay; it reports binding, not function.

In data set [2] the target is T2, hCB1 (Homo sapiens, UniProt P21554). Kind of data set: bioSens-All ebBRET effector biosensor signaling profiling, HEK293. Type of data set: cell-based. The arrangement: host or cells: HEK293 (HEK293SL clone), transient. The protocol: (§1) ebBRET-based effector membrane translocation biosensor assays were conducted at Domain Therapeutics NA Inc. (Montreal, QC, Canada) as previously described. […] HEK293 cells were maintained in Dulbecco’s Modified Eagle Medium (DMEM) (Wisent) supplemented with 1% penicillin- streptomycin (Wisent) and 10% (or 2 % for transfection) fetal bovine serum (Wisent) at 37°C with 5% CO2. All biosensor-coding plasmids and related information are the property of Domain Therapeutics NA Inc. The total amount of transfected DNA was adjusted and kept constant at 1 μg per mL of cell culture to be transfected using salmon sperm DNA (Invitrogen) as ‘carrier’ DNA, PEI (polyethylenimine 25 kDa linear, PolyScience) and DNA (3:1 ml PEI:mg DNA ratio) were first diluted separately in 150 mM NaCl then mixed and incubated for at least 20 minutes at room temperature to allow for the formation of DNA/PEI complexes. During the incubation, HEK293 cells were detached, counted, and re-suspended in maintenance medium to a 350,000 cells per mL density. At the end of the incubation period, the DNA/PEI mixture was added to the cells. Cells were finally distributed in 96-well plates (White Opaque 96-well /Microplates, Greiner) at a density of 35,000 cells per well. Forty-eight hours post-transfection, medium was aspirated and replaced with 100 μl of Hank’s Balanced Salt Solution buffer (HBSS) (Wisent) per well using 450-Select TS Biotek plate washer. After 60 min incubation in this medium, 10 μL of 10 μM e-Coelenterazine Prolume Purple (Methoxy e-CTZ) (Nanolight) was added to each well for a final concentration of 1 μM immediately followed by addition of increasing concentrations of the test compounds to each well using the HP D300 digital dispenser (Tecan). All compounds were assayed at 22 concentrations with each biosensor after a 10-minute room temperature incubation period. […] All BRET ratios were standardized using the universal BRET (uBRET) equation: uBRET=BRETratio-A/B-A×10,000 where A is the BRET ratio obtained from transfection of negative control and B is the BRET ratio obtained from transfection of positive control. […] The data were analyzed using the four-parameter logistic non-linear regression model in GraphPad Prism 9.1 and data were presented as means ± CIs of 1–4 independent experiments.
T2 sequence (P21554 whole entry, the tested form may be a part): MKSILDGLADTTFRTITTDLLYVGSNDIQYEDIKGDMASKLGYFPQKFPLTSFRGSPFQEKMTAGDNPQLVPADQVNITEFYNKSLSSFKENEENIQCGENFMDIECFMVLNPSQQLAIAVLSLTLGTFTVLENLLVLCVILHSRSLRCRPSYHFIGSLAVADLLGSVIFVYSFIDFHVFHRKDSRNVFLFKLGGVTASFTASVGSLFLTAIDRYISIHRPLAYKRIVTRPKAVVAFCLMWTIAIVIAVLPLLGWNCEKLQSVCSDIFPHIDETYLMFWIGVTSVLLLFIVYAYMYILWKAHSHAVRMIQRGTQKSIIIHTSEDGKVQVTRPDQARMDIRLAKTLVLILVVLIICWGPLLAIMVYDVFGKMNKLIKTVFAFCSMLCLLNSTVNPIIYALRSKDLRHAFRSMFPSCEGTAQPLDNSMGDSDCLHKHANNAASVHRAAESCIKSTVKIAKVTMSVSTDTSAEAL
(§2) The SEM was calculated for the logEmax/EC50 ratios using the following equation: SEM=σ/n where σ is the standard deviation, and n is the number of experiments.

The target in data set [3] is T2, hCB1. Kind of data set: Lance Ultra cAMP accumulation assay (inhibition of forskolin-stimulated cAMP), CHO cells. The arrangement: expressed in transfected cells. It counts as cell-based. Particulars: hCB1-expressing cells. Here is the method:
The inhibition of forskolin-stimulated cAMP accumulation assays was carried out using PerkinElmer’s Lance Ultra cAMP kit following the manufacturer’s protocol. In brief, CHO cells stably expressing human CB1R were harvested by incubation with Versene (ThermoFisher Scientific, Waltham, MA) for 10 min, washed once with Hank’s Balanced Salt Solution, and resuspended in stimulation buffer at ~200 cells/μL density. The ligands at eight different concentrations (0.001–10,000 nM) in stimulation buffer (5 μL) containing forskolin (2 μM final concentration) were added to a 384-well plate followed by the cell suspension (5 μL; ~1000 cells/well). The plate was incubated for 30 min at room temperature. Eu-cAMP tracer (5 μL) and Ulight-anti-cAMP (5 μL) working solutions were then added to each well, and the plate was incubated at room temperature for an additional 60 min. Results were measured on a Perkin-Elmer EnVision plate reader. The EC50 values were determined by nonlinear regression analysis using Prism software (GraphPad Software, Inc., San Diego, CA) and are expressed as the mean of three experiments, each performed in triplicate.
A general note: cAMP levels reflect the balance of adenylyl cyclase and phosphodiesterase activity.

Data set [4] has as its system C56BL/6 mice. Kind of data set: Catalepsy test (vertical wire mesh). Type of data set: in vivo, mouse. The conditions noted are these: non-cannabinoid positive control. Here is the method: Thirty and 60 minutes after an i.p. injection of the compounds, mice were placed on a vertical wire mesh and the latency to move all four paws was recorded.
Data set [5] deals with T3, hCB2 (Homo sapiens, UniProt P34972). Kind of data set: Tango β-arrestin-2 recruitment assay, HTLA cells. The arrangement: expressed in transfected cells; host or cells: HTLA (transient). Type of data set: cell-based. Particulars: for Emax: HTLA, read-out: hCB2 Tango ß-arrestin recruitment Emax [95% CI]. The protocol: (§3) The Tango β-arrestin-2 recruitment assays were performed as described. In brief, HTLA cells were transiently transfected with human CB1R or CB2R Tango DNA construct overnight in DMEM supplemented with 10 % FBS, 100 μg ml−1 streptomycin and 100 U ml−1 penicillin. The transfected cells were then plated into poly-L-lysine-coated 384-well white clear-bottom cell culture plates in DMEM containing 1% dialysed FBS at a density of 10,000–15,000 cells per well. After incubation for 6 h, the plates were added with drug solutions prepared in DMEM containing 1% dialysed FBS for overnight incubation. On the day of assay, medium and drug solutions were removed and 20 μl per well of BrightGlo reagent (Promega) was added. The plates were further incubated for 20 min at room temperature and counted using the Wallac TriLux Microbeta counter (PerkinElmer). The results were analysed using GraphPad Prism 9.1. Each experiment was performed in triplicate and functional […] values were determined from the mean of three independent experiments.
T3 sequence (P34972 whole entry): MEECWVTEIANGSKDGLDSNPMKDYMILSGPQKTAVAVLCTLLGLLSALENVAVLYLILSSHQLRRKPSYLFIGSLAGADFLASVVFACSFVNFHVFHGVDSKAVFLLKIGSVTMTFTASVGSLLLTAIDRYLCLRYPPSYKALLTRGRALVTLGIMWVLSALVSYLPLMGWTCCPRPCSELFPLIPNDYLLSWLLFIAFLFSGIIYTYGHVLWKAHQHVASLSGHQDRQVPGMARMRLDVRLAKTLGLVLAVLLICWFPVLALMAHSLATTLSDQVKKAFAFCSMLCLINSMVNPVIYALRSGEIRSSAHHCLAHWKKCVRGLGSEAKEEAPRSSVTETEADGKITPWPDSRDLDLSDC
(Arrestin recruitment assays detect the binding of arrestin to an activated receptor.)

For data set [6], the target named is T2, hCB1. In words: Tango β-arrestin-2 recruitment assay, HTLA cells. It counts as cell-based. The arrangement: expressed in transfected cells. The protocol:
as §3

Data set [7] has as its target T3, hCB2. Kind of data set: TRUPATH BRET2 GoA dissociation assay, HEK293T. Type of data set: cell-based. The arrangement: expressed in transfected cells; host or cells: HEK293T (transient). The conditions noted are these: HEK-293T, read-out: hCB2 BRET2 + GoA Emax [95% CI]. The protocol:
[…]. GoA dissociation BRET2 assays were performed as previously described with minor modifications. In brief, HEK293T cells were co-transfected overnight with human CB2 receptor, GαoA-Rluc, Gβ3, and Gγ9-GFP2 constructs. After 18–24 hours, the transfected cells were seeded into poly-L-lysine-coated 384-well white clear-bottom cell culture plates at a density of 15,000–20,000 cells and incubated with DMEM containing 1% dialyzed FBS, 100 U mL−1 of penicillin and 100 μg ml−1 of streptomycin for another 24 hours. The next day, the medium was aspirated and washed once with 20 μL of assay buffer (1× HBSS, 20 mM HEPES, 0.1% BSA, pH 7.4). Then, 20 μL of drug buffer containing coelenterazine 400a (Nanolight Technology) at 5 μM final concentration was added to each well and incubated for 5 minutes, followed by the addition of 10 μL of 3X designated drug buffer for 5 minutes. Then, 10 μL of 4X final concentrations of ligands were added for 5 minutes. […] BRET ratio was computed as the ratio of the GFP2 emission to RLuc8 emission. […] Each experiment was performed in triplicate and functional IC50 values were determined from the mean of four independent experiments.

The target of data set [8] is T3, hCB2. In words: bioSens-All ebBRET effector biosensor signaling profiling, HEK293. It counts as cell-based. The arrangement: host or cells: HEK293 (HEK293SL clone), transient. The protocol: as §1, §2
Where [9] appears, read: HEK293, read-out: hCB1 Gi1 Emax [95% CI].
[10] abbreviates: HEK293, read-out: hCB1 GoB Emax [95% CI].
Setting [11] is: HEK293, read-out: hCB1 Gz Emax [95% CI].

`COC(=O)C(NC(=O)c1cc(C)n(-c2cccc(F)c2)n1)c1cccs1` (centres unmarked) [‘51486] came in with an LE in data set [1] (ligand efficiency) of 0.32. This molecule also registered an LLE in data set [1] (lipophilic ligand efficiency) of 3.1. This molecule had a Ki in data set [1] of 731 nM. Also, the Emax in data set [2] (setting [9]) is 73%; in data set [2] (setting [10]), 74%; in data set [2] (setting [11]), 130%. Further, the EC50 was 849 nM in data set [2] (hCB1 Gi1 EC50 [95% CI], Gi1 sensor); 711 nM in data set [2] (hCB1 GoB EC50 [95% CI]); 631 nM in data set [2] (hCB1 GoB pEC50 [95% CI]); 1120 nM in data set [2] (hCB1 Gz EC50 [95% CI]). The “functional efficacy (decrease in forskolin stimulated cAMP)” value in data set [3] is given as “modest agonism”.
On to `O=C(CCCN1CCC(O)(c2ccc(Cl)cc2)CC1)c1ccc(F)cc1` [haloperidol, reference compound], for which the catalepsy result in data set [4] was “dramatic catalepsy”.
Regarding `COC(=O)[C@@H]1[C@@H]2CCC[C@@H]2CN1C(=O)c1cc(C)n(-c2cccc(Cl)c2)n1` [‘10010], the Emax in data set [1] was 101%; in data set [5], 18%; in data set [2] (setting [9]) it was 74%; in data set [2] (setting [10]), 71%; in data set [2] (setting [11]), 144%. Further, in data set [1], the affinity, expressed as Ki, was 1200 nM. Also, the “% [3H]-CP-55,940 displacement (mean) from single point screen” value in data set [1] (screens at 10 μM (white cells), 1 μM (orange) or 300 nM (green), cell colours not visible) was 33.86%. For the same molecule, the EC50 in data set [5] was 556 nM; in data set [2] (hCB1 Gi1 EC50 [95% CI]) it was 814 nM; in data set [2] (hCB1 GoB EC50 [95% CI]), 801 nM; in data set [2] (hCB1 GoB pEC50 [95% CI]), 794 nM; in data set [2] (hCB1 Gz EC50 [95% CI]), 1400 nM; in data set [6] it was over 10000 nM.
As to `COC(=O)[C@@H]1[C@@H]2CCC[C@@H]2CN1C(=O)c1cc(C)n(-c2cccc(C(F)(F)F)c2)n1` [‘6439], the Emax in data set [7] came to 81%; in data set [1], 106%; in data set [5], 14%; in data set [2] (setting [9]), 95%; in data set [2] (setting [10]), 100%; in data set [2] (setting [11]), 162%. This molecule also registered a Ki in data set [1] of 251 nM. The EC50 was 338 nM in data set [5]; 63.1 nM in data set [2] (hCB1 Gi1 pEC50 [95% CI]); 60.9 nM in data set [2] (hCB1 GoB EC50 [95% CI]); 63.1 nM in data set [2] (hCB1 GoB pEC50 [95% CI]); 339 nM in data set [2] (hCB1 Gz EC50 [95% CI]); over 10000 nM in data set [6].
Molecule `Cn1nc(-c2nnc(C(C)(C)Oc3ccc(Cl)cc3)o2)c2ccccc2c1=O` [‘0450] yielded a Ki in data set [1] of 691 nM. In addition, the Emax in data set [2] (setting [9]) was 49%; in data set [2] (setting [10]) it was 36%. In addition, the values for the EC50 in data set [2] (hCB1 Gi1 EC50 [95% CI]), in data set [2] (hCB1 Gi1 pEC50 [95% CI]) and in data set [2] (hCB1 GoB EC50 [95% CI]) were 56300 nM, 50100 nM and 2510 nM, respectively. Moreover, the “functional efficacy (decrease in forskolin stimulated cAMP)” value in data set [3] was “modest agonism”.
As to `CCCCC/C=C\C/C=C\C/C=C\C/C=C\CCCC(=O)OC(CO)CO` [2-AG, reference compound], the “hCB2 Gi1 pEC50 [95% CI]” value in data set [8] (Gi1 sensor) was 6.66 [6.6 – 6.7]. Further, in data set [8] (Gi2 sensor), the “hCB2 Gi2 pEC50 [95% CI]” value was 7.0 [6.9 – 7.2]. Besides, the “hCB2 Gi2 Emax [95% CI]” value in data set [8] (Gi2 sensor, normalized to CP-55,940) is 78 [74 – 84]. Moreover, the “hCB2 GoB pEC50 [95% CI]” value in data set [8] (GoB sensor) is 6.4 [6.3 – 6.5]. Further, in data set [8] (GoB sensor, normalized to CP-55,940), the “hCB2 GoB Emax [95% CI]” value was 101 [98 – 104]. In data set [8] (Gz sensor), the “hCB2 Gz pEC50 [95% CI]” value was 5.7 [4.1 – 6.0]. In addition, the “hCB2 Gz Emax [95% CI]” value in data set [8] (Gz sensor, normalized to CP-55,940) was 96 [76 – 233]. Also, the EC50 was determined as 1850 nM in data set [8] (read-out: hCB2 Barr2 + GRK2 EC50 [95% CI], ßarrestin-2 sensor with GRK2); 217 nM in data set [8] (read-out: hCB2 Gi1 EC50 [95% CI], Gi1 sensor); 96 nM in data set [8] (read-out: hCB2 Gi2 EC50 [95% CI], Gi2 sensor); 394 nM in data set [8] (read-out: hCB2 GoB EC50 [95% CI], GoB sensor); 2120 nM in data set [8] (read-out: hCB2 Gz EC50 [95% CI], Gz sensor). The “hCB2 Barr2 + GRK2 pEC50 [95% CI]” value in data set [8] (ßarrestin-2 sensor with GRK2) was 5.7 [5.4 – 6.0]. Also, the “hCB2 Barr2 + GRK2 Emax [95% CI]” value in data set [8] (ßarrestin-2 sensor with GRK2, normalized to CP-55,940) is 118 [104 – 140].

Values taken from doi:10.1101/2023.02.27.530254, “Large library docking for cannabinoid-1 receptor agonists with reduced side effects” (bioRxiv, 2024).
